Results reported in patent US20090076168A1, “AMINE-BASED AND IMINE-BASED POLYMERS, USES AND PREPARATION THEREOF” (priority 2005, published 2009).

System: skin
Settings: guaranine 50 mg/mL, 1-2 mL solution or gel/100 cm^2 of skin, young subjects, compared to untreated subjects
Description: Bioactive molecules can be added and the mixture stirred for 30 minutes to 2 hours according to their liposoluble or water-soluble nature. The addition of collagen or gelatin (1-10%), Polawax™ (1-10%), cetyl alcohol (1-10%), fatty acids (stearic or palmitique, 1-10%), Tween™ 20% and terpenoid (i.e. limonene) is optional.

SMILES: Cn1c(=O)c2c(ncn2C)n(C)c1=O [guaranine]
- blood pressure: considerable increase
- pulsations: considerable increase
